Values after ≈ are worked out from the molar mass of the structure shown. Read-outs that look alike come from different tables or passages of the source.
Tests used:
[1] = test system: Pseudomonas aeruginosa IFO3445; assay: In vitro antibacterial activity, two-fold agar-plate dilution method (MIC); assay type: cell-based
Experimental: (§1) In vitro antibacterial activity was determined by the two-fold agar-plate dillution method.
(§2) One loopful of an overnight culture of each test starin in Trypticase-soy broth (10^6 viable cells per mt) was streaked on heart infusion agar (Muller-Hinton Agar) containing graded concentrations of representative test compound, and the minimal inhibitory concentration (MIC) was expressed in terms of µg/ml after incubation at 37°C for 16 hours.
(§3) In vitro antibacterial activities of other compounds of the present invention were determined in the same way as in Example 26.

Staphyrococcus Terajima = assay: as above; assay type: cell-based
Experimental: as §1, §2, §3

Enterobacter cloacae 963 = assay: as above; assay type: cell-based
Experimental: as §1, §2, §3

[2] = test system: Staphyrococcus aureus MS 353; assay: as above; assay type: cell-based
Experimental: as §1, §2

[3] = test system: Butilus subtilis ATCC6633; assay: as above; assay type: cell-based; conditions: 37°C for 16 hours
Experimental: as §1, §2

[4] = test system: Staphyrococcus aureus FDA209JC-1; assay: as above; assay type: cell-based
Experimental: as §1, §2

[5] = test system: Pseudomonas aeruginosa NCTC10490; assay: as above; assay type: cell-based
Experimental: as §1, §2

[6] = test system: Pseudomonas aeruginosa PAO1; assay: as above; assay type: cell-based
Experimental: as §1, §2

[7] = test system: Salmonera schottmuelleri 8001; assay: as above; assay type: cell-based; conditions: 37°C for 16 hours
Experimental: as §1, §2

[8] = test system: Salmonera typhimurium IID 971; assay: as above; assay type: cell-based; conditions: 37°C for 16 hours
Experimental: as §1, §2

[9] = test system: Staphyrococcus pyogenes COOK; assay: as above; assay type: cell-based
Experimental: as §1, §2

[10] = test system: Escherichia coli K-12C-600; assay: as above; assay type: cell-based; conditions: K12C600, 37°C for 16 hours
Experimental: as §1, §2

[11] = test system: Micrococcus luteus ATCC9341; assay: as above; assay type: cell-based
Experimental: as §1, §2

Salmonera paratyphi 1015 = assay: as above; assay type: cell-based; conditions: 16 h
Experimental: as §1, §2, §3

[12] = test system: Serratia marcescens IAM1184; assay: as above; assay type: cell-based; conditions: Serratia marcescens, IAM1184, 16 h
Experimental: as §1, §2, §3

Proleus morgani IFO3848 = assay: as above; assay type: cell-based; conditions: 37°C for 16 hours, read-out: MIC
Experimental: as §1, §2, §3

[13] = test system: Proleus vulgaris IFO 3850; assay: as above; assay type: cell-based; conditions: Proleus vulgaris IFO 3850; agar dilution, 37°C for 16 hours; read-out: MIC
Experimental: as §1, §2, §3

Proleus vulgaria OX-19 = assay: as above; assay type: cell-based; conditions: 37°C for 16 hours, read-out: MIC
Experimental: as §1, §2, §3

E.coli 81 = assay: In vivo antibacterial activity: survival of mice infected with E.coli 81; parameters: species or system ICR strain male mice
Experimental: Experiment was performed in ICR strain male mice (5W) weighing 22 to 25 g. The animals were used in a group of 10 per regimen. Test organism, E.coli 81, was cultured on Mueller-Hinton agar over night at 37°C and suspended in saline to be one minimal lethal dose (5 x 10^5 cells/head). One mililitre of the bacterial suspension was injected intrapenetoreally and, after 15 minutes, mice were treated subcutaneously with various doses of compound (100) and comparative compound B. Survival mice were counted for 4 days and final observation was carried out on day 4.

[14] = Pseudomonas aeruginosa IFO3445, agar dilution, 37°C for 16 hours, read-out: MIC
[15] = Staphyrococcus Terajima, agar dilution, 37°C for 16 hours, read-out: MIC
[16] = Enterobacter cloacae 963, agar dilution, 37°C for 16 hours, read-out: MIC

Row | Structure (SMILES) | MIC [3] [µg/mL] | MIC [7] [µg/mL] | MIC [8] [µg/mL] | MIC [10] [µg/mL] | MIC (Salmonera paratyphi 1015) [µg/mL] | MIC [1, 14] [µg/mL] | MIC [12] [µg/mL] | MIC (Proleus morgani IFO3848) [µg/mL] | MIC [13] [µg/mL] | MIC (Staphyrococcus Terajima; [15]) [µg/mL] | MIC (Enterobacter cloacae 963; [16]) [µg/mL] | also measured
1 | CC(C)(ON=C(C(=O)NC1C(=O)N2C(C(=O)[O-])=C(C[n+]3ccccc3)CSC12)c1csc(N)n1)C(=O)O (centres unmarked) [Comparative compound A] | 0.78 (≈ 1.43 µM) | 0.025 (≈ 0.0457 µM) | 0.39 (≈ 0.714 µM) | 0.2 (≈ 0.366 µM) | – | – | – | – | – | – | – | MIC ([1]; Pseudomonas aeruginosa, IFO3445, 16 h): 1.56 µg/mL (≈ 2.85 µM); MIC (Staphyrococcus Terajima; 16 h): 1.56 µg/mL (≈ 2.85 µM); MIC (Enterobacter cloacae 963; Enterobacter cloacae, 963, 16 h): 0.2 µg/mL (≈ 0.366 µM); MIC ([2]; 16 h): 1.56 µg/mL (≈ 2.85 µM); MIC ([4]; 16 h): 1.56 µg/mL (≈ 2.85 µM); MIC ([5]; Pseudomonas aeruginosa, NCTC10490, 16 h): 0.39 µg/mL (≈ 0.714 µM); MIC ([6]; Pseudomonas aeruginosa, PAO1, 16 h): 0.1 µg/mL (≈ 0.183 µM); MIC ([9]; 16 h): 0.0063 µg/mL (≈ 0.0115 µM); MIC ([11]; Micrococcus luteus, ATCC9341, 16 h): 0.0063 µg/mL (≈ 0.0115 µM)
2 | CO/N=C(\C(=O)N[C@@H]1C(=O)N2C(C(=O)[O-])=C(C[N+]34CCC(CC3)C(O)C4)CS[C@H]12)c1csc(N)n1 (stereo partly drawn) [Compound (302), (6R,7R)-7-[(Z)-2-(2-aminothiazol-4-yℓ)-2-methoxyiminoacetoamido]-3-(1-aza-3-hydro-xybicyclo[2,2,2]octane-l-io)methyl-3-cephem-4-carboxylate] | – | – | – | – | 0.0125 (≈ 0.0239 µM) | 0.39 (≈ 0.746 µM) | 0.0125 (≈ 0.0239 µM) | 0.0063 (≈ 0.0121 µM) | 0.0063 (≈ 0.0121 µM) | 0.1 (≈ 0.191 µM) | 0.025 (≈ 0.0478 µM) | MIC (Proleus vulgaria OX-19): 0.025 µg/mL (≈ 0.0478 µM)
3 | CC(C)(O/N=C(\C(=O)N[C@@H]1C(=O)N2C(C(=O)[O-])=C(C[N+]34CCCC3CCC4)CS[C@H]12)c1csc(N)n1)C(=O)O (stereo partly drawn) [Compound (116), (6R,7R)-7-[(Z)-2-(2-aminothiazol-4-yl)-2-(2-carboxypropyl-2-yloxyimino)acetoamido]-3-(1-azabicyclo[3,3,0]octane-l-io)methyl-3-cephem-4-carboxylate] | – | – | – | – | 0.0125 (≈ 0.0216 µM) | 0.2 (≈ 0.346 µM) | 0.0125 (≈ 0.0216 µM) | 0.0063 (≈ 0.0109 µM) | 0.0063 (≈ 0.0109 µM) | 0.78 (≈ 1.35 µM) | 0.05 (≈ 0.0864 µM) | –
4 | CON=C(C(=O)NC1C(=O)N2C(C(=O)O)=C(CSc3nnnn3C)CSC12)c1csc(N)n1 (centres unmarked) [Comparative compound B] | 0.78 (≈ 1.52 µM) | 0.0063 (≈ 0.0123 µM) | 0.39 (≈ 0.762 µM) | 0.05 (≈ 0.0977 µM) | – | 12.5 (≈ 24.4 µM) | – | – | – | 0.78 (≈ 1.52 µM) | 0.2 (≈ 0.391 µM) | Survivals percent (%) on day 4 (E.coli 81; Dose 0.016 mg/head subcutaneously 15 minutes after intraperitoneal E.coli 81 (5 x 10^5 cells/head)): 0%; Survivals percent (%) on day 4 (E.coli 81; Dose 0.032 mg/head subcutaneously 15 minutes after intraperitoneal E.coli 81 (5 x 10^5 cells/head)): 20%; Survivals percent (%) on day 4 (E.coli 81; Dose 0.063 mg/head subcutaneously 15 minutes after intraperitoneal E.coli 81 (5 x 10^5 cells/head)): 30%; Survivals percent (%) on day 4 (E.coli 81; Dose 0.125 mg/head subcutaneously 15 minutes after intraperitoneal E.coli 81 (5 x 10^5 cells/head)): 40%; Survivals percent (%) on day 4 (E.coli 81; Dose 0.25 mg/head subcutaneously 15 minutes after intraperitoneal E.coli 81 (5 x 10^5 cells/head)): 40%; Survivals percent (%) on day 4 (E.coli 81; Dose 0.5 mg/head subcutaneously 15 minutes after intraperitoneal E.coli 81 (5 x 10^5 cells/head)): 40%; MIC ([2]; Staphyrococcus aureus MS 353, agar dilution, 37°C for 16 hours, read-out: MIC): 0.2 µg/mL (≈ 0.391 µM); MIC ([4]; Staphyrococcus aureus FDA209JC-1, agar dilution, 37°C for 16 hours, read-out: MIC): 3.12 µg/mL (≈ 6.1 µM); MIC ([5]; Pseudomonas aeruginosa NCTC10490, agar dilution, 37°C for 16 hours, read-out: MIC): 0.39 µg/mL (≈ 0.762 µM); MIC ([6]; Pseudomonas aeruginosa PAO1, agar dilution, 37°C for 16 hours, read-out: MIC): 12.5 µg/mL (≈ 24.4 µM); MIC ([9]; Staphyrococcus pyogenes COOK, agar dilution, 37°C for 16 hours, read-out: MIC): 0.025 µg/mL (≈ 0.0489 µM); MIC ([11]; Micrococcus luteus ATCC9341, agar dilution, 37°C for 16 hours, read-out: MIC): 0.39 µg/mL (≈ 0.762 µM)

— patent publication EP0172919A1, “CEPHALOSPORIN DERIVATIVES, PROCESS FOR THEIR PREPARATION, AND THEIR PHARMACEUTICAL USE” (TEIJIN LIMITED, priority 1984, dated 1985)
